In test [1] the target is T1, Human adrenergic α2A receptor (Homo sapiens, UniProt P08913).
T1 sequence (P08913 1-465): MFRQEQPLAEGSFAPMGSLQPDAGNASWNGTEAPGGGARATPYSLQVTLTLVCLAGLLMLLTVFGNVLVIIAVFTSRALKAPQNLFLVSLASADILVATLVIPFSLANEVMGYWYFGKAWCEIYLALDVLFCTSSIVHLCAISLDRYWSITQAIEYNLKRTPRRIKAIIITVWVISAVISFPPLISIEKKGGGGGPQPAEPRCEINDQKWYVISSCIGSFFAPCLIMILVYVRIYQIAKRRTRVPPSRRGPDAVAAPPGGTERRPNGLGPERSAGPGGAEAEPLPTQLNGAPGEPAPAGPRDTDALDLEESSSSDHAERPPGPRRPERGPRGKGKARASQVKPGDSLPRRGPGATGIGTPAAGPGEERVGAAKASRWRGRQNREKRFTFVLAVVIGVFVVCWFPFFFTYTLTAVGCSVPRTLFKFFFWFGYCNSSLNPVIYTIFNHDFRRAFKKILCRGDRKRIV
Nature of the test: Radioligand binding, adrenergic α2A (Protocol Group B). Further details: purchased Milipore (Millipore). The conditions noted are these: for Percentage inhibition of ligand binding, Adrenergic α2A (0.1 μM) / inhibition at 0.1 µM: 0.1 μM compound; for Percentage inhibition of ligand binding, Adrenergic α2A (0.1 μM) / Percentage inhibition of ligand binding, Adrenergic α2A (0.3 μM) / Ki / inhibition at 0.1 µM / inhibition at 0.3 µM: Protocol Group B; for Percentage inhibition of ligand binding, Adrenergic α2A (0.3 μM) / inhibition at 0.3 µM: 0.3 μM compound; for Ki: estimated Ki; for inhibition at 0.1 µM: read-out: Percentage inhibition of ligand binding, Adrenergic α2A (0.1 μM); for inhibition at 0.3 µM: read-out: Percentage inhibition of ligand binding, Adrenergic α2A (0.3 μM). The method in brief: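 Compounds (1% DMSO vehicle, various concentrations) competed against 2 nM [^3H]MK-912 on recombinant receptor membranes for 60 min at 25° C, Tris-HCl pH 7.4 buffer with Mg2+, Ca2+, BSA. Bound radioligand filtered and counted; 10 μM rauwolscine set nonspecific binding. Values: percent inhibition of specific binding or estimated Ki.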

In test [2] the target is T2, Human adrenergic α1B receptor (Homo sapiens, UniProt P35368).
T2 sequence (P35368 1-520): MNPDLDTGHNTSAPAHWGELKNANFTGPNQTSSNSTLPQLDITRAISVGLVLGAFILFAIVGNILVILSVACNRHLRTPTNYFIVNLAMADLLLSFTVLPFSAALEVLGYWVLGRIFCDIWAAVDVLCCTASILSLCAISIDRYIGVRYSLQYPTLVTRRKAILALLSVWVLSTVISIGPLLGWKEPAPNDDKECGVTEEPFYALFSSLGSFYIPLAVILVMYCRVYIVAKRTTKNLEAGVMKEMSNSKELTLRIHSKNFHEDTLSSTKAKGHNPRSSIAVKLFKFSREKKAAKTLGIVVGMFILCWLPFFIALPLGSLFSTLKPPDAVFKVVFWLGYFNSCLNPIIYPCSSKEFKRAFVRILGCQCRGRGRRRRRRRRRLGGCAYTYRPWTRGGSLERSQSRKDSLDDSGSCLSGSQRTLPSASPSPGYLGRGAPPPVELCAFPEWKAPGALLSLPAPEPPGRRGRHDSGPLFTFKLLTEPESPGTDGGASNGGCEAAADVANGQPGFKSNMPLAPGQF
Description: β-Arrestin GPCR functional assay, adrenergic α1B (Protocol B). The note with it: for IC50: β-arrestin, antagonist vs nor-epinephrine EC80. It is filed as cell-based. The method in brief:
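Antagonist mode: norepinephrine at its EC80 of 50 nM was added for 90 min at 37°C after a 30-min compound pretreatment of CHO cells expressing the human α1B receptor, with DMSO at 1% final. β-Arrestin recruitment read by chemiluminescence (60 min, RT, dark) and expressed as percent inhibition or IC50.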

In test [3] the target is T2, Human adrenergic α1B receptor. Nature of the test: Radioligand binding, adrenergic α1B (Protocol Group B). The note with it: for inhibition at 0.1 µM / Percentage inhibition of ligand binding, Adrenergic α1B (0.1 μM): 0.1 μM compound; for inhibition at 0.1 µM / inhibition at 0.3 µM / Ki / Percentage inhibition of ligand binding, Adrenergic α1B (0.1 μM) / Percentage inhibition of ligand binding, Adrenergic α1B (0.3 μM): Protocol Group B; for inhibition at 0.1 µM: read-out: Percentage inhibition of ligand binding, Adrenergic α1B (0.1 μM); for inhibition at 0.3 µM / Percentage inhibition of ligand binding, Adrenergic α1B (0.3 μM): 0.3 μM compound; for inhibition at 0.3 µM: read-out: Percentage inhibition of ligand binding, Adrenergic α1B (0.3 μM); for Ki: estimated Ki. More on the design: purchased Milipore (Millipore). The method in brief:
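Values are percent inhibition of specific [3H]prazosin (0.3 nM) binding or estimated Ki, from filtration counting. Human α1B recombinant membranes, Tris-HCl pH 7.4 buffer with MgCl2 and EDTA, 60 min at 25 °C, 1% DMSO vehicle; 10 μM prazosin defined nonspecific binding.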

Test [4] concerns the target T1, Human adrenergic α2A receptor. Description: β-Arrestin GPCR functional assay, adrenergic α2A (Protocol B). Format: cell-based. The conditions noted are these: for IC50: β-arrestin, antagonist vs nor-epinephrine EC80. Summed up:
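Antagonist mode: after 30 min compound pretreatment at 37 °C, 270 nM norepinephrine (EC80) was added for 90 min to CHO cells expressing human α2A. Luminescent enzyme-complementation detection (60 min, RT) quantified β-arrestin recruitment, expressed as percent inhibition or IC50.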

For the compound `Cc1cc(F)c2c(c1)c1c(n2CC(O)c2ccncc2)CCN2CCCC12` (single isomer, unassigned) [137a], in test [1], the “Percentage inhibition of ligand binding, Adrenergic α2A (0.1 μM)” value is 56%; the “Percentage inhibition of ligand binding, Adrenergic α2A (0.3 μM)” value is given as 79%; the Ki is 43.6 nM. Further, the half-inhibitory concentration (IC50) in test [2] was 114 nM. Further, in test [3], the inhibition at 0.1 µM is 58%, the inhibition at 0.3 µM is 85% and the inhibitory constant (Ki) is 15 nM. Also, half-maximal inhibition in test [4] (IC50) required 5100 nM.
For `Cc1cc(F)c2c(c1)c1c(n2CC(O)c2ccncc2)CCN2CCCC12` (single isomer, unassigned) [137b], in test [1], the “Percentage inhibition of ligand binding, Adrenergic α2A (0.1 μM)” value was 94%; the “Percentage inhibition of ligand binding, Adrenergic α2A (0.3 μM)” value is 102%; the inhibition constant Ki was 2.4 nM. In test [2], this compound had an IC50 of 35.6 nM. Moreover, in test [3], the “Percentage inhibition of ligand binding, Adrenergic α1B (0.1 μM)” value was determined as 74%; the “Percentage inhibition of ligand binding, Adrenergic α1B (0.3 μM)” value was 94%; the inhibitory constant (Ki) was 7.3 nM. This compound also registered an IC50 in test [4] of 185 nM.
As for `Cc1ccc2c(c1)c1c(n2CC(OCC2CCC2)c2ccncc2)CCN2CCCC12` (single isomer, unassigned) [138a], in test [1], the inhibition at 0.1 µM was 91%, the inhibition at 0.3 µM worked out at 88% and the Ki is 2.2 nM. This compound returned a concentration for half-maximal inhibition (IC50) in test [2] of 72.2 nM. Moreover, in test [3], the “Percentage inhibition of ligand binding, Adrenergic α1B (0.1 μM)” value is 84%; the inhibition at 0.3 µM was 88%; the Ki was 2.4 nM. The same compound had an IC50 in test [4] of 413 nM.
`Cc1ccc2c(c1)c1c(n2CC(OCC2CCC2)c2ccncc2)CCN2CCCC12` (single isomer, unassigned) [138b]: in test [1], the “Percentage inhibition of ligand binding, Adrenergic α2A (0.1 μM)” value is 82%; the “Percentage inhibition of ligand binding, Adrenergic α2A (0.3 μM)” value came out at 84%; the Ki was 9.9 nM. The compound also displayed an IC50 in test [2] of 926 nM. Also, in test [3], the “Percentage inhibition of ligand binding, Adrenergic α1B (0.1 μM)” value is 57%; the “Percentage inhibition of ligand binding, Adrenergic α1B (0.3 μM)” value was 80%; the Ki was 14 nM. This compound also returned a 50% inhibitory concentration (IC50) in test [4] of 1330 nM.
On to `Cc1ccc2c(c1)c1c(n2CC(O)c2ccncc2)CC[N+]2([O-])CCCC12` (centres unmarked) [compound 23, 7-(2-hydroxy-2-(pyridin-4-yl)ethyl)-10-methyl-1,2,3,4,5,6,7,11c-octahydroindolizino[7,8-b]indole 4-oxide], for which the inhibition at 0.0032 µM in test [1] (3.2 nM compound, concentration series, read-out: Percentage inhibition of ligand binding, Adrenergic α2A, 3.2 nM) worked out at 14%; in test [3] (3.2 nM compound, concentration series, read-out: Percentage inhibition of ligand binding, Adrenergic α1B, 3.2 nM), 21%. Moreover, the inhibition at 0.01 µM in test [1] (10 nM compound, concentration series, read-out: Percentage inhibition of ligand binding, Adrenergic α2A, 10 nM) came out at 21%; in test [3] (10 nM compound, concentration series, read-out: Percentage inhibition of ligand binding, Adrenergic α1B, 10 nM), 22%. Besides, the inhibition at 0.03 µM was determined as 37% in test [1] (0.03 μM compound, concentration series, read-out: Percentage inhibition of ligand binding, Adrenergic α2A, 0.03 μM) and 32% in test [3] (0.03 μM compound, concentration series, read-out: Percentage inhibition of ligand binding, Adrenergic α1B, 0.03 μM). The inhibition at 0.1 µM in test [1] was found to be 55%; in test [2] (0.1 μM compound, nor-epinephrine at EC80 (50 nM), read-out: Percentage inhibition, Adrenergic α1B), 15%; in test [3], 53%; in test [4] (0.1 μM compound, nor-epinephrine at EC80 (270 nM), read-out: Percentage inhibition, Adrenergic α2A), 1%. Moreover, the inhibition at 0.3 µM is 64% in test [1]; 15% in test [2] (0.3 μM compound, nor-epinephrine at EC80 (50 nM), read-out: Percentage inhibition, Adrenergic α1B); 65% in test [3]; 1% in test [4] (0.3 μM compound, nor-epinephrine at EC80 (270 nM), read-out: Percentage inhibition, Adrenergic α2A). The inhibition at 0.32 µM came out at 67% in test [1] (0.32 μM compound, concentration series, read-out: Percentage inhibition of ligand binding, Adrenergic α2A, 0.32 μM) and 64% in test [3] (0.32 μM compound, concentration series, read-out: Percentage inhibition of ligand binding, Adrenergic α1B, 0.32 μM). Also, the inhibition at 1 µM worked out at 76% in test [1] (1 μM compound, concentration series, read-out: Percentage inhibition of ligand binding, Adrenergic α2A, 1 μM) and 72% in test [3] (1 μM compound, concentration series, read-out: Percentage inhibition of ligand binding, Adrenergic α1B, 1 μM). The inhibition at 3.2 µM came out at 88% in test [1] (3.2 μM compound, concentration series, read-out: Percentage inhibition of ligand binding, Adrenergic α2A, 3.2 μM) and 85% in test [3] (3.2 μM compound, concentration series, read-out: Percentage inhibition of ligand binding, Adrenergic α1B, 3.2 μM). Also, the inhibition at 10 µM in test [1] (10 μM compound, concentration series, read-out: Percentage inhibition of ligand binding, Adrenergic α2A, 10 μM) worked out at 92%; in test [3] (10 μM compound, concentration series, read-out: Percentage inhibition of ligand binding, Adrenergic α1B, 10 μM) it was 93%. In addition, the results for the inhibitory constant (Ki) in test [1] and in test [3] were 20.8 nM and 56.4 nM, respectively. Further, the half-inhibitory concentration (IC50) in test [2] amounted to 1210 nM.
Regarding `Cc1ccc2c(c1)c1c(n2C[C@@H](OC2CCCC2)c2ccncc2)CCN2CCC[C@H]12` [compound 82, (11cR)-7-[(25)-2-(cyclopentoxy)-2-(4-pyridyl)ethyl]-10-methyl-1,2,3,5,6,11c-hexahydroindolizino[7,8-b]indole], in test [1], the inhibition at 0.1 µM stood at 92%, the inhibition at 0.3 µM was determined as 97% and the Ki is 4.5 nM. In test [2], this compound returned an IC50 of 382 nM. In test [3], the inhibition at 0.1 µM came out at 56%, the inhibition at 0.3 µM is 81% and the inhibition constant Ki is 32.7 nM. Also, the IC50 in test [4] came to 675 nM.

Source of the values: US20150315188A1, “COMPOUNDS AND METHODS FOR TREATMENT OF HYPERTENSION” (MEDIVATION TECHNOLOGIES, INC., priority 2012, published 2015).
